Laboratory results taken from patent US20100179646A1 (Rainbow Medical Ltd., priority 2009, published 2010).
Values after ≈ are worked out from the molar mass of the structure shown. “Also recorded” adds a separate entry of the source.

Columns and labels:
[1] = GOx activity assay (o-Dianisidine/peroxidase, optical density at 490 nm); type: biochemical; settings: 0.03 mg/ml GOx
Procedure: An assay was set up that included: • 48 mM sodium acetate buffer, pH 5.1 • 0.16 mM o-Dianisidine • 1.61% (w/v) glucose • 2 units/ml peroxidase
The above components undergo the following reactions in combination with GOx:
β-D-glucose+O2+H2O→D-Gluconolactone+H2O2 Reaction 1
H2O2+o-Dianisidine(reduced)→o-Dianisidine(oxidized) Reaction 2
The optical density of the assay at 490 nm indicates the concentration of oxidized o-Dianisidine in the assay, oxidized o-Dianisidine being the final product of Reactions 1 and 2. […] The assay was set up in a 96-well plate, in accordance with enzyme-linked immunosorbent assay (ELISA) techniques, as are known in the art. An ELISA reader, as is known in the art, was used to determine the optical density of the assay.
An assay was set up, in accordance with the techniques described with reference to Experiment 1.
The above components, in combination with glucose, undergo Reactions 1 and 2 described with reference to Experiment 1 hereinabove.
Different concentrations of glucose were added to the assay, and the optical density of the assay after five minutes was measured with 490 nm light.
The above assay was set up with sodium acetate buffer of a pH that varied from 4 to 7.7.

[2] = test system: Enterococcus faecalis strain G; settings: GOx 6 μg/well (30 μg/mL) or higher, 72 hours, bacteria added at 0, 24 and 48 h
Procedure: Materials and Methods. • A Versamax™ temperature-controlled spectrophotometeric plate reader was used to continuously monitor growth of bacteria. This device accepts standard microtiter plates and maintains a constant temperature as desired. It therefore serves both as an incubator and as a plate reader that quantitatively monitors bacterial growth by following the development of turbidity in the wells. The device is supported by software which allows generation of individual growth curves for each well. • Enterococcus faecalis strain G was used. This bacterium was selected to establish a baseline to which other bacteria may be compared in the future. It is a stable strain and is streptomycin-resistant, which allows the use of this antibiotic agent in the growth media to reduce the incidence of accidental contamination with other bacterial strains. • Growth medium and conditions. The tests were conducted using Brain-Heart Infusion broth (BHI) as growth medium. This medium contained 1 mg/100 ml glucose which is approximately equivalent to serum concentration of glucose. […] Bacteria were added at 10^6 CFU/well and the turbidity in the well was continuously monitored for up to 24 h to monitor the growth of the bacteria. […] Bacteria were added at 10^6 CFU/well, and the turbidity in the well was continuously monitored for 24 h to monitor bacterial growth. […]

[3] = test system: Enterococcus faecalis strain G; assay: Determination of the MIC, 24 hour turbidity assay (optical density at 650 nm); type: cell-based
Procedure: Materials and Methods. • A Versamax™ temperature-controlled spectrophotometeric plate reader was used to continuously monitor growth of bacteria. This device accepts standard microtiter plates and maintains a constant temperature as desired. It therefore serves both as an incubator and as a plate reader that quantitatively monitors bacterial growth by following the development of turbidity in the wells. The device is supported by software which allows generation of individual growth curves for each well. • Enterococcus faecalis strain G was used. This bacterium was selected to establish a baseline to which other bacteria may be compared in the future. It is a stable strain and is streptomycin-resistant, which allows the use of this antibiotic agent in the growth media to reduce the incidence of accidental contamination with other bacterial strains. • Growth medium and conditions. The tests were conducted using Brain-Heart Infusion broth (BHI) as growth medium. This medium contained 1 mg/100 ml glucose which is approximately equivalent to serum concentration of glucose. A temperature of 37 C was maintained throughout the test. • Antibacterial agents. […] The Triclosan was initially dissolved in […] at a concentration of 10 mg/ml. […] Two types of non-woven fabric were used. The material was cut to standard size of 6 mm2. […] The growth medium contained 1 mg/100 mL glucose, which is approximately equivalent to the concentration that may be present in human blood. […] Bacteria were added at 10^6 CFU/well and the turbidity in the well was continuously monitored for up to 24 h to monitor the growth of the bacteria. Each group consisted of 8 wells with respective concentrations. Wells containing bacteria with no antibacterial agent served as a positive control. […] Bacteria were added to the same wells at time 0 and then at 24 and 48 h. Bacterial growth was monitored for 24 h after each addition. • (c) Determination of the MIC of Triclosan: The antibacterial effect of Triclosan was tested in 24 hour assays in order to define its MIC. Each well contained 200 μL of sterile growth medium. A range of Triclosan concentrations was added to respective wells. Bacteria were added at 10^6 CFU/well, and the turbidity in the well was continuously monitored for 24 h to monitor bacterial growth. Each group consisted of 8 wells with respective concentrations. Wells containing bacteria with no antibacterial agent served as a positive control. […] Each sample was attached to a special insert that allowed the material to be inserted into the wells of a microtiter plate without interfering with turbidity measurements in that well.

Compound | influence of pH on GOx activity ([1]; 1.61% (w/v) glucose, sodium acetate buffer pH 4 to 7.7) | GOx activity at glucose levels of 80-120 mg/dL ([1]; pH 5.1, after five minutes, FIG. 6A) | inhibition of bacterial growth, sustained effect [2] | inhibition of bacterial growth ([3]; 4 μg/well (20 μg/mL), 24 h) | minimal inhibitory concentration (MIC) ([3]; 24 hour assay, BHI broth with 1 mg/100 ml glucose, 37 C, 106 CFU/well) [µg/mL] | inhibition of bacterial growth ([3]; GOx 6 μg/well (30 μg/mL) or higher, 24 h) | MIC ([3]; Enterococcus faecalis, 24 h, read-out: minimal inhibitory concentration (MIC)) [µg/mL] | inhibition of bacterial growth ([3]; Triclosan 5 μg/well (25 μg/mL) and above, 24 h)
glucose oxidase [GOx] | not substantially influenced | active; also recorded: approximately constant activity | substantially complete inhibition | failed to inhibit | 30 | substantially inhibitory; also recorded: zero bacterial growth |  | 
Oc1cc(Cl)ccc1Oc1ccc(Cl)cc1Cl [Triclosan, reference compound] |  |  |  | failed to inhibit |  |  | 25 (≈ 86.3 µM) | substantially inhibitory
